Assay results: patent EP4232018B1 (priority 2020, dated 2022)
“Also recorded” adds a separate entry of the source.

Experiments:
[1] = tested on: African swine fever virus; format: cell-based
SARS-CoV-2 = format: cell-based

| SMILES | inhibiting African swine fever virus [1] | viral multiplication (rosetta) [1] | inhibition of the SARS-CoV-2 reporter gene (SARS-CoV-2) | effect on cell viability (A549 NSCLC cells) |
| --- | --- | --- | --- | --- |
| Cc1ccc(C(C)C)c(OC(=O)C[N+](C)(C)CCCCCCCCCC[N+](C)(C)CC(=O)Oc2cc(C)ccc2C(C)C)c1.[Cl-].[Cl-] [Compound V, N1,N10-bis(2-(2-isopropyl-5-methylphenoxy)-2-oxoethyl)-N1,N1,N10,N10-tetramethyldecane-1,10-diaminium dichloride] | effective at inhibiting African swine fever virus | Cells grew well and were protected from African swine fever virus infection. No rosetta were observed; also recorded: Cells grew well, but protection against ASFV infection decreased and some rosetta became visible | – | – |
| Cc1ccc(C(C)C)cc1OC(=O)C[N+](C)(C)CCCCCCCCCC[N+](C)(C)CC(=O)Oc1cc(C(C)C)ccc1C.[Cl-].[Cl-] [Compound IV, N1,N10-bis(2-(5-isopropyl-2-methylphenoxy)-2-oxoethyl)-N1,N1,N10,N10-tetramethyldecane-1,10-diaminium dichloride] | effective at inhibiting African swine fever virus | Cells grew well and were protected from African swine fever virus infection. No rosetta were observed; also recorded: Cells grew well, but protection against ASFV infection decreased and some rosetta became visible | inhibits the SARS-CoV-2 reporter gene in a dose dependent manner | does not affect cell viability |
